How the values were obtained:
Format in all cases: biochemical
[1] = molecular target: T1, GST-tagged Tankyrase-1 (1023-1327 aa) (Homo sapiens, UniProt O95271); test: Tankyrase 1 autoparsylation HTRF enzyme assay; settings: read-out: IC50 TNKS1 enzyme assay
T1 construct: GST-tagged Tankyrase-1 (1023-1327 aa)
Method: (§1) Biochemical activity testing of Tankyrase 1 and 2: Autoparsylation assay
(§2) The autoparsylation assay is run in two steps: the enzymatic reaction in which GST-tagged Tankyrase-1, resp Tankyrase-2 transferred biotinylated ADP-ribose to itself from biotinylated NAD as co-substrate and the detection reaction where a time resolved FRET between cryptate labelled anti-GST bound to the GST tag of the enzyme and Xlent® labelled-streptavidin bound the biotin-parsylation residue is analysed. The autoparsylation activity was detectable directly via the increase in HTRF signal.
(§3) The autoparsylation assay is performed as 384-well HTRF® (Cisbio, Codolet, France) assay format in Greiner low volume nb 384-well microtiter plates and is used for high throughput screen. 250 nM GST-tagged Tankyrase-1 (1023-1327 aa), respectively about 250 nM GST-tagged Tankyrase-2 (873-1166 aa) and 5 μM bio-NAD (Biolog, Life science Inst., Bremen, Germany) as co-substrate are incubated in a total volume of 5 μl (50 mM HEPES, 4 mM Mg-chloride, 0.05% Pluronic F-68, 1.4 mM DTT, 0.5% DMSO, pH 7.7) in the absence or presence of the test compound (10 dilution concentrations) for 90 min at 30° C. The reaction is stopped by the addition of 1 μl 50 mM EDTA solution. 2 μl of the detection solution (1.6 μM SA-Xlent® (Cisbio, Codolet, France), 7.4 nM Anti-GST-K® (Eu-labelled anti-GST, Cisbio, Codolet, France) in 50 mM HEPES, 800 mM KF, 0.1% BSA, 20 mM EDTA, 0.1% CHAPS, pH 7.0) are added. After 1 h incubation at room temperature the HTRF is measured with an Envision multimode reader (Perkin Elmer LAS Germany GmbH) at excitation wavelength 340 nm (laser mode) and emission wavelengths 615 nm and 665 nm. The ratio of the emission signals is determined. The full value used is the inhibitor-free reaction. The pharmacological zero value used is XAV-939 (Tocris) in a final concentration of 5 μM. The inhibitory values (IC50) are determined using either the program Symyx Assay Explorer® or Condosseo® from GeneData.

[2] = molecular target: T2, GST-tagged Tankyrase-2 (873-1166 aa) (Homo sapiens, UniProt Q9H2K2); test: Tankyrase 2 autoparsylation HTRF enzyme assay; settings: read-out: IC50 TNKS2 enzyme assay
T2 construct: GST-tagged Tankyrase-2 (873-1166 aa)
T2 sequence (Q9H2K2 873-1166): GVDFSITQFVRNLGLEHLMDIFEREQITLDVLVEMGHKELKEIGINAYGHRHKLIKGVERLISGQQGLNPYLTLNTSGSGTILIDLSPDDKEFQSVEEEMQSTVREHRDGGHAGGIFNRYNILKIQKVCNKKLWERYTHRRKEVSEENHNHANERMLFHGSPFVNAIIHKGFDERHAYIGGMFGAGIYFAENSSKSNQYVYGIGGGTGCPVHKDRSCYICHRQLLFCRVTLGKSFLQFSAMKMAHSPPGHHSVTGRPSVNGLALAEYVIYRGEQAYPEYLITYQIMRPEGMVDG
Method: as §1, §2, §3

[3] = molecular target: T3, GST-tagged Tnks-1 (1023-1327 aa) (Homo sapiens, UniProt O95271); test: TNKS1 activity ELISA (autoparsylation assay)
T3 construct: GST-tagged Tnks-1 (1023-1327 aa, prepared in-house); made in house
T3 sequence (O95271 1023-1327): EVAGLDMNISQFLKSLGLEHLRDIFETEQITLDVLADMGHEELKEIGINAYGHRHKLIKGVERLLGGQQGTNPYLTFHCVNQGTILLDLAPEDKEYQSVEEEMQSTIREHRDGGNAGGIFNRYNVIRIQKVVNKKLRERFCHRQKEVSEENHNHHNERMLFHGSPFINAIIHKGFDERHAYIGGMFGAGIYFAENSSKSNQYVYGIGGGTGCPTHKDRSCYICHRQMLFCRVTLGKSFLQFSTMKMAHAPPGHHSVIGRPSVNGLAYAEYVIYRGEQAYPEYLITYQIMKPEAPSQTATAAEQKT
Method in brief: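 Each GST-tagged enzyme (20 ng/well) was captured overnight at 4 °C on glutathione plates, then auto-ADP-ribosylated with 10 μM biotin-NAD for 1 h at 30 °C, pH 7.7, 0.5% DMSO, compound at 10 concentrations. Streptavidin-HRP chemiluminescence measured the signal. IC50 relative to inhibitor-free reaction, with 5 μM XAV-939 defining zero.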

T1 sequence (O95271 1023-1327): as above

Question: For `COc1ccc(N(C)C(=O)N2CCC(C(=O)c3cccc(OC)c3)CC2)cc1` [Compound A27, 4-(3-methoxy-benzoyl)-piperidine-1-carboxylic acid (4-methoxy-phenyl)methyl-amide], which IC50 [1] is on record?
Answer: < 300 nM

Question: And the IC50 [2]?
Answer: 300 to 3000 nM

Question: And the IC50 [3]?
Answer: < 300 nM

Question: What does the source list for `COc1ccc(C(=O)C2CCN(C(=O)N(C)c3ccc(OC)cc3)CC2)cc1` [Compound A6, 4-(4-methoxy-benzoyl)-piperidine-1-carboxylic acid (4-methoxy-phenyl)methyl-amide]?
Answer: IC50 [1]: < 300 nM; IC50 [2]: 300 to 3000 nM; IC50 [3]: < 300 nM

Question: Which IC50 [1] does the source give for `COc1ccc(C(=O)C2CCN(C(=O)N3CCc4ccccc43)CC2)cc1` [Compound A18, (2,3-dihydro-indol-1-yl)-[4-(4-methoxy-benzoyl)-piperidin-1-yl]-methanone] here?
Answer: 300 to 3000 nM

Question: What about the IC50 [2] of the same molecule?
Answer: 300 to 3000 nM

Question: What about the IC50 [3] of the same molecule?
Answer: < 300 nM

Question: For `CCN(C(=O)N1CCC(C(=O)c2ccccc2)CC1)c1ccc(OC)cc1` [Compound A14, 4-benzoyl-piperidine-1-carboxylic acid ethyl-(4-methoxy-phenyl)-amide], which IC50 [1] is on record?
Answer: < 300 nM

Question: And the IC50 [2]?
Answer: 300 to 3000 nM

Question: What about the IC50 [3] of the same molecule?
Answer: < 300 nM

Question: With `CCN(C(=O)N1CCC(C(=O)c2ccc(OC)c(C)c2)CC1)c1ccc(OC)cc1` [Compound A24, 4-(4-methoxy-3-methyl-benzoyl)-piperidine-1-carboxylic acid ethyl-(4-methoxy-phenyl)-amide] as the molecule, how does the IC50 [1] read?
Answer: < 300 nM

Question: And the IC50 [2]?
Answer: 300 to 3000 nM

Question: What about the IC50 [3] of the same molecule?
Answer: < 300 nM

Question: Which results are given for `CCN(C(=O)N1CCC(C(=O)c2cccc(OC)c2)CC1)c1ccc(OC)cc1` [Compound A28, 4-(3-methoxy-benzoyl)-piperidine-1-carboxylic acid ethyl-(4-methoxy-phenyl)amide]?
Answer: IC50 [1]: < 300 nM; IC50 [2]: < 300 nM; IC50 [3]: < 300 nM

Question: What does the source list for `Cc1ccc(C(=O)C2CCN(C(=O)N3CCc4ccccc43)CC2)cc1` [Compound A17, (2,3-dihydro-indol-1-yl)-[4-(4-methyl-benzoyl)-piperidin-1-yl]-methanone]?
Answer: IC50 [1]: 300 to 3000 nM; IC50 [2]: 300 to 3000 nM; IC50 [3]: < 300 nM

Question: Which results are given for `O=C(c1ccccc1)C1CCN(C(=O)N2CCc3ccccc32)CC1` [Compound A16, (4-benzoyl-piperidin-1-yl)-(2,3-dihydro-indol-1-yl)-methanone]?
Answer: IC50 [1]: 300 to 3000 nM; IC50 [2]: 300 to 3000 nM; IC50 [3]: < 300 nM

Question: `CN(C(=O)N1CCC(C(=O)c2ccc(NS(C)(=O)=O)cc2)CC1)c1ccccc1` [Compound A38, 4-(4-methanesulfonylamino-benzoyl)-piperidine-1-carboxylic acid methyl-phenyl-amide] was tested. Which IC50 [1] did it give?
Answer: < 300 nM

Question: And the IC50 [2]?
Answer: 300 to 3000 nM

Question: What about the IC50 [3] of the same molecule?
Answer: < 300 nM

Question: For `COc1ccc(N(C)C(=O)N2CCC(C(=O)c3ccc(F)cc3)CC2)cc1` [Compound A8, 4-(4-fluoro-benzoyl)-piperidine-1-carboxylic acid (4-methoxy-phenyl)-methylamide], which IC50 [1] is on record?
Answer: 300 to 3000 nM

Question: What about the IC50 [2] of the same molecule?
Answer: 300 to 3000 nM

Question: What about the IC50 [3] of the same molecule?
Answer: < 300 nM

Question: What does the source list for `COc1ccc(N(C)C(=O)N2CCC(C(=O)c3ccccc3)CC2)cc1` [Compound A4, 4-benzoyl-piperidine-1-carboxylic acid (4-methoxy-phenyl)-methyl-amide]?
Answer: IC50 [1]: 300 to 3000 nM; IC50 [2]: 300 to 3000 nM; IC50 [3]: < 300 nM

Question: With `COc1ccc(N(C)C(=O)N2CCC(C(=O)c3cccc(C)c3)CC2)cc1` [Compound A25, 4-(3-methyl-benzoyl)-piperidine-1-carboxylic acid (4-methoxy-phenyl)methyl-amide] as the molecule, how does the IC50 [1] read?
Answer: < 300 nM

Question: And the IC50 [2]?
Answer: 300 to 3000 nM

Question: What about the IC50 [3] of the same molecule?
Answer: < 300 nM

Question: `Cc1ccc(N(C)C(=O)N2CCC(C(=O)c3ccccc3)CC2)cc1` [Compound A2, 4-benzoyl-piperidine-1-carboxylic acid methyl-p-tolyl-amide] was tested. Which IC50 [1] did it give?
Answer: 300 to 3000 nM

Question: What about the IC50 [2] of the same molecule?
Answer: 300 to 3000 nM

Question: What about the IC50 [3] of the same molecule?
Answer: < 300 nM

Question: With `COc1ccc(N(CCO)C(=O)N2CCC(C(=O)c3ccccc3)CC2)cc1` [Compound A15, 4-benzoyl-piperidine-1-carboxylic acid (2-hydroxy-ethyl)-(4-methoxy-phenyl)amide] as the molecule, how does the IC50 [1] read?
Answer: 300 to 3000 nM

Question: And the IC50 [2]?
Answer: 300 to 3000 nM

Question: And the IC50 [3]?
Answer: < 300 nM

Question: What does the source list for `CCN(C(=O)N1CCC(C(=O)c2cccc(C)c2)CC1)c1ccc(OC)cc1` [Compound A26, 4-(3-methyl-benzoyl)-piperidine-1-carboxylic acid ethyl-(4-methoxy-phenyl)amide]?
Answer: IC50 [1]: < 300 nM; IC50 [2]: 300 to 3000 nM; IC50 [3]: < 300 nM

Question: With `Cc1cccc(N(C)C(=O)N2CCC(C(=O)c3ccccc3)CC2)c1` [Compound A1, 4-benzoyl-piperidine-1-carboxylic acid methyl-m-tolyl-amide] as the molecule, how does the IC50 [1] read?
Answer: 300 to 3000 nM

Question: And the IC50 [2]?
Answer: 300 to 3000 nM

Question: What about the IC50 [3] of the same molecule?
Answer: < 300 nM

Question: What does the source list for `CCOC(=O)CN(C(=O)N1CCC(C(=O)c2ccc(OC)cc2)CC1)c1ccccc1` [Compound A40, {[4-(4-methoxy-benzoyl)-piperidine-1-carbonyl]-phenyl-amino}-acetic acid ethyl ester]?
Answer: IC50 [1]: < 300 nM; IC50 [2]: 300 to 3000 nM; IC50 [3]: < 300 nM

Question: For `COc1ccc(N(C)C(=O)N2CCC(C(=O)c3ccc(OC)c(F)c3)CC2)cc1` [Compound A29, 4-(3-fluoro-4-methoxy-benzoyl)-piperidine-1-carboxylic acid (4-methoxy-phenyl)-methyl-amide], which IC50 [2] is on record?
Answer: 300 to 3000 nM

Question: And the IC50 [3]?
Answer: < 300 nM

Question: With `COc1ccc(N(C)C(=O)N2CCC(C(=O)c3cccc(F)c3)CC2)cc1` [Compound A7, 4-(3-fluoro-benzoyl)-piperidine-1-carboxylic acid (4-methoxy-phenyl)-methylamide] as the molecule, how does the IC50 [1] read?
Answer: 300 to 3000 nM

Question: What about the IC50 [2] of the same molecule?
Answer: 300 to 3000 nM

Question: And the IC50 [3]?
Answer: < 300 nM

Question: With `CN(C(=O)N1CCC(C(=O)c2ccccc2)CC1)c1ccc(F)cc1` [Compound A13, 4-benzoyl-piperidine-1-carboxylic acid (4-fluoro-phenyl)-methyl-amide] as the molecule, how does the IC50 [1] read?
Answer: 300 to 3000 nM

Question: What about the IC50 [2] of the same molecule?
Answer: 300 to 3000 nM

Question: And the IC50 [3]?
Answer: < 300 nM

Question: For `COc1ccc(N(C)C(=O)N2CCC(C(=O)c3ccc(C)cc3)CC2)cc1` [Compound A5, 4-(4-methyl-benzoyl)-piperidine-1-carboxylic acid (4-methoxy-phenyl)-methylamide], which IC50 [1] is on record?
Answer: < 300 nM

Question: What about the IC50 [2] of the same molecule?
Answer: 300 to 3000 nM

Question: And the IC50 [3]?
Answer: < 300 nM

From US9770446B2, “Piperidine urea derivatives” (MERCK PATENT GMBH, priority 2013, dated 2017)
